# Measured values published in publication PMC6320337, “Hepatocyte growth factor activator inhibitor-2 stabilizes Epcam and maintains epithelial organization in the mouse intestine” (Communications Biology, 2019).
# Columns and labels:
# matriptase = target: T1, matriptase (Homo sapiens, UniProt Q9Y5Y6); assay: fluorescent kinetic enzyme inhibition assay; format: biochemical
# T1 construct: gene ST14; recombinant catalytic domain (#3946-SEB, R&D Systems)
# T1 sequence (Q9Y5Y6 615-855 limits assumed): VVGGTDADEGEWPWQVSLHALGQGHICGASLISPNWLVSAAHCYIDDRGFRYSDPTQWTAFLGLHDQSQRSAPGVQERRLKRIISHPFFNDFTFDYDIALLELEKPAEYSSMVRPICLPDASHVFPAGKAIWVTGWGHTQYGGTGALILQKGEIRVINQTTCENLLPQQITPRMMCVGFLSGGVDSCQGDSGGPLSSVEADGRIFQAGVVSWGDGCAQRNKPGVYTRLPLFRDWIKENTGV
# hepsin = target: T2, hepsin (Homo sapiens, UniProt P05981); assay: fluorescent kinetic enzyme inhibition assay
# T2 construct: gene HPN
# T2 sequence (P05981 45-162 limits assumed): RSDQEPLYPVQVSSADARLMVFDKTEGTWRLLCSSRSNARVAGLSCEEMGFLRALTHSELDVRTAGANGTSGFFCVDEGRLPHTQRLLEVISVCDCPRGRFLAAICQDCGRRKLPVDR
# T2 sequence (P05981 163-417 limits assumed): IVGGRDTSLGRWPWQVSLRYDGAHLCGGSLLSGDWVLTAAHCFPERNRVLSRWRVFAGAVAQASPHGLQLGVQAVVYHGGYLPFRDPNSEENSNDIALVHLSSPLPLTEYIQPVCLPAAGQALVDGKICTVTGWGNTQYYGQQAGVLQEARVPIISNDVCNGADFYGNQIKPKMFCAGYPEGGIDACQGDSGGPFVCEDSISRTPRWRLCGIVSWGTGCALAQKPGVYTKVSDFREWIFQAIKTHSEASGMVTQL
SMILES,Ki (matriptase),Ki (hepsin)
N=C(N)NCCC[C@H](NC(=O)[C@H](CC(N)=O)NC(=O)OCC1c2ccccc2-c2ccccc21)C(=O)c1nc2ccccc2s1 [ZFH7185-3],106 nM,1.7 nM
N=C(N)NCCC[C@H](NC(=O)CNC(=O)OCC1c2ccccc2-c2ccccc21)C(=O)c1nc2ccccc2s1 [ZFH7185-8],0.13 nM,831 nM
